The record followed here is patent publication US12679877B2, “NPRA agonists, compositions, and uses thereof” (PharmaIn Corporation, priority 2017, dated 2026).

Marks after values point to notes of the source that are not given here. No end group written: not given here. *: point of attachment. CH3(CH2)22CO = C24 acyl (CH3(CH2)22CO-), CCCCCCCCCCCCCCCCCCCCCCCC(=O)*; Docosanoyl = CCCCCCCCCCCCCCCCCCCCCC(=O)*; Stearoyl = CCCCCCCCCCCCCCCCCC(=O)*

A short description of data set [1]: Plasma ANP level by ELISA after s.c. ANP in the same study. It is filed as in vivo, Balb/c mice. The following applies: ANP 12 mg/Kg s.c., injection at 0 hour and 6 hours; average of all groups with same dose; value (SEM). The protocol:
An investigation was carried out to determine whether prolonged presence of ANP in the blood would have a sustained pharmacodynamic effect, reflected by elevation of cGMP blood concentration, and to determine whether that elevation would be proportional to the level of ANP. The level of blood cGMP relative to ANP was determined. […] This problem had not been documented in literature and there was no reason to solve this previously unknown problem. […] For this study, 4 groups of Balb/c mice (n=3/group; female, 5-6 weeks old; 18-25 g) were used and the cGMP levels at various time points after ANP administration with and without 2nd ANP administration were evaluated. […] Two subsequent s.c. (subcutaneous) administrations of the ANP formulated in a polymeric excipient (to increase in vivo stability) were evaluated. […] The plasma samples were analyzed for cGMP using the cGMP ELISA kit (GE Healthcare Life Sciences, Marlborough, MA) according to manufacturer's protocol. […] The level of ANP associated with cGMP was also measured to further confirm receptor depletion was the result of lack of responsiveness if any. The associated level of ANP was measured using an ELISA assay kit (GE Healthcare Life Sciences, Marlborough, MA) according to manufacturer's protocol. […]
(ELISA stands for enzyme-linked immunosorbent assay.)

Data set [2] has as its system natriuretic peptide receptors (NPRA or NPRB). The data set is described as follows: 2-point blood cGMP evaluation (2 and 6 hours) after 15 mg/Kg s.c., cGMP Direct Biotrak EIA. It is filed as in vivo, CD-1 mice. The following applies: for In vivo blood cGMP minus baseline, 2 hour (potency) / In vivo blood cGMP minus baseline, 6 hour (receptor depletion): 15 mg/Kg s.c. in mice (n=3), minus baseline 30 pmol/ml (n=12); for In vivo blood cGMP minus baseline, 2 hour (potency): 2 hours after dosing; for In vivo blood cGMP minus baseline, 6 hour (receptor depletion): 6 hours after dosing; for activity / potency compared to ANP, in words (2 hour data in Table 2): 15 mg/Kg s.c. in mice, blood cGMP. The method, then:
Various derivatives of ANP were made and screened for increase in vivo potency while limiting the apparent receptor depletion effects (or perhaps can act on another cGMP enhancing receptors) by looking at the level of blood cGMP at specific time points. […] Various derivatives were made and tested in vivo to determine the level of blood cGMP at 2 hours and 6 hours after subcutaneous administration of 15 mg/Kg in mice (which was allometrically equivalent to human dose of 1.5 mg/Kg) with the goal of finding derivatives that were therapeutically useful for increasing blood cGMP.
For 2-point cGMP evaluation of various derivatives, test samples were dissolved in water (Lonza, Wakersville, MD) before being lyophilized. Prior to use, the lyophilized test sample was dissolved in saline then 15 mg/Kg was injected subcutaneously into female CD-1 mice 6-8 weeks (n=3). Blood samples were collected at 2 and 6 hours with K2EDTA blood collection tube. The collection tube was then centrifuged at 13,000 rpm for 10 minutes at 4° C. to separate plasma. The plasma was analyzed using the cGMP Direct Biotrak EIA (GE Healthcare Life Sciences, Marlborough, MA). Note that by using allometric scaling at exponent of 0.7 [dose in other species=mice dose/((mouse weight/weight of average other species)^0.7)], the 15 mg/Kg in mice is equivalent to about 7.5 mg/Kg rat dose, about 2.5 mg/Kg dog dose, and 1.5 mg/Kg human dose. For the purpose the present disclosure, the 15 mg/Kg in mice as presented in the relevant data examples, should be understood as equivalent to about 7.5 mg/Kg rat dose, which is equivalent to about 2.5 mg/Kg dog dose, which is equivalent to about 1.5 mg/Kg human dose. Because the mice cGMP response to 15 mg/Kg dose of the newly discovered derivatives (see Table 2) was quite high, it would be prudent to use daily doses that are lower than 15 mg/Kg for mice, 7.5 mg/Kg for rat, 2.5 mg/Kg for dog, and 1.5 mg/Kg for human since any higher dose may result in too much increase in cGMP that can result in too much or even dangerous drop in blood pressure unless formulated in a very slow release delivery system. In fact based on cGMP response it was more preferable to use daily doses that are lower than […], 1.5 mg/Kg for rat, 0.5 mg/Kg for dog, and 0.3 mg/Kg for human. Additionally, the level of blood cGMP is preferably between 1.5 to 3-times of the normal baseline level. The blood or plasma cGMP normal baseline level was about 20-50 pmol/ml but could vary slightly depending on the assay kit used to measure the level.

As to `CC[C@H](C)[C@@H]1NC(=O)[C@H](CCCNC(=N)N)NC(=O)[C@H](CC(=O)O)NC(=O)[C@H](CCSC)NC(=O)[C@H](CCCNC(=N)N)NC(=O)CNC(=O)CNC(=O)[C@H](Cc2ccccc2)NC(=O)[C@@H](NC(=O)[C@H](CO)NC(=O)[C@H](CO)NC(=O)[C@H](CCCNC(=N)N)NC(=O)[C@H](CCCNC(=N)N)NC(=O)[C@H](CC(C)C)NC(=O)[C@@H](N)CO)CSSC[C@@H](C(=O)N[C@@H](CC(N)=O)C(=O)N[C@@H](CO)C(=O)N[C@@H](Cc2ccccc2)C(=O)N[C@@H](CCCNC(=N)N)C(=O)N[C@@H](Cc2ccc(O)cc2)C(=O)O)NC(=O)CNC(=O)[C@H](CC(C)C)NC(=O)CNC(=O)[C@H](CO)NC(=O)[C@H](CCC(N)=O)NC(=O)[C@H](C)NC(=O)CNC1=O` [SEQ ID NO. 1], the “2 hrs. ANP level” value in data set [1] is on record as 67.24 (6.92)* ng/ml.

As for “CH3(CH2)16COKKKKGGGGLSKGCFGLKLDRIGSMSGLGC (Stearoyl-KKKKGGGGLSKGCFGLKLDRIGSMSGLGC; not fully specified (bridges); printed as CH3(CH2)16COKKKKGGGGLSKGCFGLKLDRIGSMSG; cysteine pairing not given here; listed as Homo Sapiens) [SEQ ID NO. 72]”, in data set [2], the “In vivo blood cGMP minus baseline, 2 hour (potency)” value worked out at 544.99 nM; the “In vivo blood cGMP minus baseline, 6 hour (receptor depletion)” value was determined as 368.29 pmol/mL; the “activity / potency compared to ANP, in words (2 hour data in Table 2)” value (“activity / potency compared to ANP” for short) is “increased potency”.

For the molecule “CH3(CH2)20COKKKKGGGSLRRSSCFGGRMDRIGAQSGLGCNSFRY (Docosanoyl-KKKKGGGSLRRSSCFGGRMDRIGAQSGLGCNSFRY; not fully specified (bridges); printed as CH3(CH2)20COKKKKGGGSLRRSSCFGGRMDRIGAQSGLGCNSFRY; cysteine pairing not given here; listed as Homo Sapiens) [SEQ ID NO. 94]”, in data set [2], the “In vivo blood cGMP minus baseline, 2 hour (potency)” value was found to be 263.8 nM and the “In vivo blood cGMP minus baseline, 6 hour (receptor depletion)” value was 255.4 pmol/mL.

As for “CH3(CH2)22COKKKKGGGGLSKGCFGLKLDRIGSMSGLGC ({CH3(CH2)22CO}-KKKKGGGGLSKGCFGLKLDRIGSMSGLGC; not fully specified (bridges); printed as CH3(CH2)22COKKKKGGGGLSKGCFGLKLDRIGSMSGLGC; cysteine pairing not given here; listed as Homo Sapiens) [SEQ ID NO. 122]”, in data set [2], the “In vivo blood cGMP minus baseline, 2 hour (potency)” value was found to be 251.92 nM and the “In vivo blood cGMP minus baseline, 6 hour (receptor depletion)” value stood at 209.24 pmol/mL.

As for “CH3(CH2)22COKKKKGGGSLRRSSCFGGRMDRIGAQSGLGCNSFRY ({CH3(CH2)22CO}-KKKKGGGSLRRSSCFGGRMDRIGAQSGLGCNSFRY; not fully specified (bridges); printed as CH3(CH2)22COKKKKGGGSLRRSSCFGGRMDRIGAQSGLGCNSFRY; cysteine pairing not given here; listed as Homo Sapiens) [SEQ ID NO. 95]”, in data set [2], the “In vivo blood cGMP minus baseline, 2 hour (potency)” value turned out to be 260.8 nM and the “In vivo blood cGMP minus baseline, 6 hour (receptor depletion)” value is 245.6 pmol/mL.

Regarding “GGGGLSKGCFGLKLDRIGSMSGLGC (listed as Homo Sapiens) [SEQ ID NO. 60]”, in data set [2], the “In vivo blood cGMP minus baseline, 2 hour (potency)” value was determined as 49.98 nM; the “In vivo blood cGMP minus baseline, 6 hour (receptor depletion)” value is 16.85 pmol/mL; the “activity / potency compared to ANP” value is “no loss activity compared to ANP”.

“GGGSLRRSSCFGGRMDRIGAQSGLGCNSFRY (listed as Homo Sapiens) [SEQ ID NO. 4]”: in data set [2], the “In vivo blood cGMP minus baseline, 2 hour (potency)” value was 41.66 nM and the “In vivo blood cGMP minus baseline, 6 hour (receptor depletion)” value is -11.79 pmol/mL.

Take “GGLSKGCFGLKLDRIGSMSGLGC (listed as Homo Sapiens) [SEQ ID NO. 58]”: in data set [2], the “In vivo blood cGMP minus baseline, 2 hour (potency)” value stood at 27.09 nM; the “In vivo blood cGMP minus baseline, 6 hour (receptor depletion)” value worked out at 5.10 pmol/mL; the “activity / potency compared to ANP” value is recorded as “no loss activity compared to ANP”.

For “GGSLRRSSCFGGRMDRIGAQSGLGCNSFRY (listed as Homo Sapiens) [SEQ ID NO. 3]”, in data set [2], the “In vivo blood cGMP minus baseline, 2 hour (potency)” value amounted to 46.79 nM and the “In vivo blood cGMP minus baseline, 6 hour (receptor depletion)” value is 0.16 pmol/mL.

Turning to “GLSKGCFGLKLDRIGSMSGLGC [SEQ ID NO. 57, reference compound]”, in data set [2], the “In vivo blood cGMP minus baseline, 2 hour (potency)” value was determined as 93.75 nM and the “In vivo blood cGMP minus baseline, 6 hour (receptor depletion)” value is 24.55 pmol/mL.

Take “GSLRRSSCFGGRMDRIGAQSGLGCNSFRY (listed as Homo Sapiens) [SEQ ID NO. 2]”: in data set [2], the “In vivo blood cGMP minus baseline, 2 hour (potency)” value is 44.08 nM and the “In vivo blood cGMP minus baseline, 6 hour (receptor depletion)” value was -13.85 pmol/mL.

As to “KGGGSLRRSSCFGGRMDRIGAQSGLGCNSFRY (listed as Homo Sapiens) [SEQ ID NO. 5]”, in data set [2], the “In vivo blood cGMP minus baseline, 2 hour (potency)” value was found to be 59.96 nM and the “In vivo blood cGMP minus baseline, 6 hour (receptor depletion)” value amounted to 44.34 pmol/mL.

For the molecule “KKGGGSLRRSSCFGGRMDRIGAQSGLGCNSFRY (listed as Homo Sapiens) [SEQ ID NO. 6]”, in data set [2], the “In vivo blood cGMP minus baseline, 2 hour (potency)” value came to 28.6 nM and the “In vivo blood cGMP minus baseline, 6 hour (receptor depletion)” value was -4.81 pmol/mL.

For “KKKGGGSLRRSSCFGGRMDRIGAQSGLGCNSFRY (listed as Homo Sapiens) [SEQ ID NO. 7]”, in data set [2], the “In vivo blood cGMP minus baseline, 2 hour (potency)” value stood at 23.40 nM and the “In vivo blood cGMP minus baseline, 6 hour (receptor depletion)” value was -1.19 pmol/mL.

Take “KKKKGGGSLRRSSCFGGRMDRIGAQSGLGCNSFRY (listed as Homo Sapiens) [SEQ ID NO. 8]”: in data set [2], the “In vivo blood cGMP minus baseline, 2 hour (potency)” value was determined as 53.00 nM and the “In vivo blood cGMP minus baseline, 6 hour (receptor depletion)” value worked out at 15.25 pmol/mL.
